PubChem BioAssay (NCI)
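Values below derive from 48-hour exposures of cells grown in 96-well plates, with endpoints linearly interpolated between the two concentrations bracketing the appropriate inhibition level. The concentration for 50% growth inhibition is given as GI50. At the TGI there is no net growth.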

Experiments:
Test in all cases: NCI anticancer screen, dose series, 48 h
HCC-2998 colon = test system: HCC-2998 colon
OVCAR-5 ovarian = test system: OVCAR-5 ovarian
HCT-15 colon = test system: HCT-15 colon
SW-620 colon = test system: SW-620 colon
LOX IMVI melanoma = test system: LOX IMVI melanoma
A498 renal = test system: A498 renal
SK-MEL-28 melanoma = test system: SK-MEL-28 melanoma
MOLT-4 leukemia = test system: MOLT-4 leukemia
M14 melanoma = test system: M14 melanoma
SR leukemia = test system: SR leukemia

Compound	GI50 (HCC-2998 colon) [µM]	TGI (HCC-2998 colon) [µM]	GI50 (OVCAR-5 ovarian) [µM]	TGI (OVCAR-5 ovarian) [µM]	GI50 (HCT-15 colon) [µM]	TGI (HCT-15 colon) [µM]	GI50 (SW-620 colon) [µM]	TGI (SW-620 colon) [µM]	GI50 (LOX IMVI melanoma) [µM]	TGI (LOX IMVI melanoma) [µM]	GI50 (A498 renal) [µM]	TGI (A498 renal) [µM]	GI50 (SK-MEL-28 melanoma) [µM]	TGI (SK-MEL-28 melanoma) [µM]	GI50 (MOLT-4 leukemia) [µM]	TGI (MOLT-4 leukemia) [µM]	GI50 (M14 melanoma) [µM]	TGI (M14 melanoma) [µM]	TGI (SR leukemia) [µM]	GI50 (SR leukemia) [µM]
ClCc1ccccc1Cn1cnc2c(Cl)ncnc21	1.67	3.54	2.46	6.53	2.07	4.71	1.78	5.04	2.14	5.21	17.4	32.2	2.31	5.48	1.6	5.28	1.94	3.74		
COc1cc(C(C)c2cc3c(cc2OCCNC(=O)COc2cc4c(cc2C(C)c2cc(OC)c(OC)c(OC)c2)OCO4)OCO3)cc(OC)c1OC (stereo unspecified)		> 100		> 100		> 100		> 100		> 100		> 100		> 100		71.8		> 100	> 100	
O=C1C(=O)c2ccccc2C(O)=C1CCCc1ccc(C2CCCCC2)cc1	11.6	61.4	17	42.2	3	24.6	4.36	19.5	1.15	12	2.35	20.9	8.54	27.2	4.24	> 100	5.93	22.4	31	2.44
O=C(c1ccccc1)c1c(C(F)(F)F)n([O-])c2cc(C(F)(F)F)ccc2[n+]1=O	1.88	3.44	1.99	5.54	1.6	3.24	0.619	1.69	0.258	0.745	2.22	5.22	1.71	3.23	0.6	2.29	1.68	3.17	3.53	1.17
COc1ccc2c(c1)NC1(O)c3ccccc3C(=O)C21O (stereo unspecified)								> 100		> 100		> 100		> 100		> 100		> 100	> 100	
N/N=C(\c1nc2ccc(Cl)cc2[nH]c1=O)C(O)c1ccc(Cl)c(Cl)c1 (stereo unspecified)		> 100		> 100		> 100		> 100		> 100				> 100		> 100		> 100	> 100	
COc1cc(OC)c(OC)cc1/C=C/c1cnnc2ccccc12		> 10		> 10		> 10		> 10		> 10		> 10		> 10		> 10		> 10		
CCCN(CCC)C(=O)c1nc(N)nc(-c2ccc(OC)cc2)c1-c1ccc(OC)cc1				> 100		> 100		> 100				> 100		> 100		> 100		> 100		
Cn1nc(C(F)(F)F)c(-c2cc(C(F)(F)F)cc(C(F)(F)F)c2)c1-c1ccc(OCc2ccc(Cl)cc2)cc1O	2.77	12.4	3.29	15	2.14	10.7	3	11	1.98	4.31	1.31	5.13	2.32	10.7	2.61	11	2.07	5.27	7.51	1.79
O=c1oc2cc(OC/C(=N/O)c3ccc(F)cc3)ccc2c2ccccc12	17	30.7	19.4	40	20.7	42.4	23.2	44.6			22	37.7	20	37.2	16.7	42.7	19.2	33.7	69.2	26.6
N#C/C(=N\Nc1ccccc1)C(=O)Nc1cc(-c2ccccc2)nn1-c1ccccc1	3.81	> 100	3.39	> 100	2.98	> 100	3.15	> 100					3.78	> 100	3.75	> 100	2.68	> 100	> 100	5.19
O=C(Nc1ccccc1-c1nn(CN2CCNCC2)c(=S)n(CN2CCNCC2)c1=O)C(F)(F)F		33.4		45		31.6		22.2		36.5		35.3		33.2		> 100		31.1		
Cc1nc(/C=C2\C(=O)C=Cc3ccccc32)c(O)o1		> 100		> 100		> 100		> 100				> 100		> 100		> 100		> 100		
CC(=O)NC(CSC1=C2NC(=O)\C=C/C=C/C=C\C(C)C(O)CC(=O)/C(C)=C\CC(O)/C=C/C(C)C(O)C(C)C=C(C)C(=O)c3c(O)c(C)cc(c3C1=O)C2=O)C(=O)O (stereo unspecified)				> 100		> 100		> 100		> 100		> 100		> 100		> 100		> 100	> 100	
CC(=O)NNc1nc(C)c(C(=O)/C=C/c2ccc(Cl)cc2)s1		> 100		> 100				> 100		> 100		> 100		> 100		> 100				
COc1ccc2oc(-c3ccc(OC)c(OC)c3OC)cc(=O)c2c1		> 100		> 100				> 100		> 100				> 100				> 100		
O=S(=O)(N=NC=C1c2ccccc2N(O)c2ccccc21)c1ccc(Cl)cc1		> 100		> 100		> 100		> 100		> 100		> 100		> 100		> 100		> 100		
COC1CCC(OC)C(C2(C3CC(OC)CCC3OC)OC(=O)c3ccccc32)C1 (stereo unspecified)		> 100		> 100		> 100		> 100				> 100				89.3		> 100	> 100	
COC(=O)/C(C#N)=C(\N)C(Cl)(Cl)Cl		9.41				8.43		1.84		10.8		8.22		4.66		3.2		3.31	5.37	

Compound	GI50 (HCC-2998 colon) [µM]	TGI (HCC-2998 colon) [µM]	GI50 (OVCAR-5 ovarian) [µM]	TGI (OVCAR-5 ovarian) [µM]	GI50 (HCT-15 colon) [µM]	TGI (HCT-15 colon) [µM]	GI50 (SW-620 colon) [µM]	TGI (SW-620 colon) [µM]	GI50 (LOX IMVI melanoma) [µM]	TGI (LOX IMVI melanoma) [µM]	GI50 (A498 renal) [µM]	TGI (A498 renal) [µM]	GI50 (SK-MEL-28 melanoma) [µM]	TGI (SK-MEL-28 melanoma) [µM]	GI50 (MOLT-4 leukemia) [µM]	TGI (MOLT-4 leukemia) [µM]	GI50 (M14 melanoma) [µM]	TGI (M14 melanoma) [µM]	TGI (SR leukemia) [µM]	GI50 (SR leukemia) [µM]
COC(=O)C1CC(OC(C)=O)C=C2C(=O)CCC21 (stereo unspecified)		> 100				30.9		39.4				> 100		33.8		40		50.2	45.4	
CC(C)=CC(=O)N[C@H]1CC[C@]2(C)C3CC[C@]4(C)C(C(C)N(C)C)=CCC4C3CCC2[C@H]1O (stereo partly specified)	5.22	17.8	10.9	25.2	1.55	4.2	1.97	4.55	1.62	3.49	3.82	16.6	1.82	3.4	2.81	11.4	1.92	3.74		
CN(C)CCCC1(c2ccc(F)cc2)OCc2cc(-c3cc4ccccc4s3)ccc21 (stereo unspecified)	1.67	3.11	1.58	2.92	1.69	3.13	1.74	3.4	1.64	3.13	1.53	2.92	1.81	3.22	1.52	3.08	1.59	3.13		
COc1cc(NS(C)(=O)=O)ccc1NCc1c2ccccc2nc2ccccc12		> 100		> 100		> 100		> 100		91.1				> 100		35		> 100	62.9	
COC1=CC(c2ccc[nH]2)=N/C1=C\c1[nH]c(C)c(CC(=O)OCc2ccccc2)c1C			1.11	5.38	0.292	1.1	0.366	1.79	0.214	0.753	0.433	2.3			0.23	1.27	0.233	0.59		
CCOc1ccc(NCC2CC/C(=C\c3ccccc3OC)C2=O)cc1 (stereo unspecified)		25.8		32.5		7.82		14.3		18.6		33.9		24.1		20.9		12.1		
Nc1ccc(COC(O)CN2CCCCC2)cc1[N+](=O)[O-] (stereo unspecified)		> 100		> 100		> 100		> 100				> 100		> 100		> 100		> 100	> 100	
CC(C(=O)c1ccccc1)C1(O)C(=O)Nc2ccc(Cl)cc21 (stereo unspecified)		> 100		> 100		> 100		> 100		> 100		> 100		> 100				> 100		
C=CCC1(C(=O)OC(C)(C)C)C(OC)=C(C(=O)OC(C)(C)C)C2C1C(C(=O)OC(C)(C)C)=C(OC)C2(CC=C)C(=O)OC(C)(C)C (stereo unspecified)		> 100		> 100		> 100		> 100						> 100		> 100		> 100	> 100	
C[C@]12CC[C@H]3[C@@H](CC4SC(N)=NC45C/C(=N/NC(N)=O)CC[C@]35C)[C@@H]1CCC2=O (stereo partly specified)	1.74	3.28	1.71	3.19	1.46	2.86	1.69	3.39	1.71	3.12	2.1	6.83	1.63	3.1	2.64	7.02	1.94	3.77		
Cc1ccc(S(=O)(=O)OC(COC(=O)c2ccccc2)C(OS(=O)(=O)c2ccc(C)cc2)C(OS(=O)(=O)c2ccc(C)cc2)C(COC(=O)c2ccccc2)OS(=O)(=O)c2ccc(C)cc2)cc1 (stereo unspecified)		> 100				> 100		> 100		> 100		> 100		> 100		> 100		> 100	> 100	
Cc1nc(N)nc(N)c1CCCc1ccccc1		39.2		> 100		> 100		> 100		> 100				86.1		> 100		64.2	> 100	
Cc1cc(C)c(C(=O)O)c(SSc2cc(C)cc(C)c2C(=O)O)c1				> 100				> 100		> 100		> 100		> 100		> 100			> 100	
CCCCc1c2cnccc2c(CCCC)c2c1[nH]c1ccccc12		> 100		> 100		46		> 100		41.4		35.2		21.7		23.7		41.1		
Nc1nc(SCc2ccccc2Cl)cc(C(=O)O)n1		> 100		> 100		> 100		> 100		> 100		> 100		> 100				> 100	> 100	
Cc1ccc2nc3cc(C)c(=O)cc-3sc2c1		> 100		> 100		> 100		> 100						> 100		> 100		> 100	> 100	
C=C1C(=O)O[C@H]2[C@H]1CC/C(COC(=O)OC/C1=C/CC[C@@]3(C)O[C@H]3[C@H]3OC(=O)[C@@H](CN(C)C)[C@@H]3CC1)=C\CC[C@@]1(C)O[C@@H]21	2.96	8.2	2.13	5.21	1.04	2.53	0.445	1.85	1.47	2.97	8.29	21.8	1.57	4.23	0.874	3.75	1.54	3.35		
COc1ccc2c(c1OC)C(C(Cl)(Cl)Cl)N1CCc3cc4c(cc3C1=C2)OCO4 (stereo unspecified)		29.5		> 100		> 100		> 100		> 100		> 100		27.8		80.9		> 100		
